The numbers were not newly measured in paper PMC3230568 (International Journal of Nanomedicine, 2011), which cites them from elsewhere.

One data set concerns the target full-length p53 (Homo sapiens, UniProt P04637). To be noted: single-molecule AFS.
A further data set has as its system NTD of p53. The following applies: biological as well as computational studies.
Data set [1] concerns cancer cells. The following applies: azurin.
For data set [2] the following is noted: azurin.
Another data set relates to p53. The following applies: azurin.
Data set [3] has as its system cancer cells. The following applies: azurin, relative to normal cells.

Chain of full-length p53 (P04637 whole entry): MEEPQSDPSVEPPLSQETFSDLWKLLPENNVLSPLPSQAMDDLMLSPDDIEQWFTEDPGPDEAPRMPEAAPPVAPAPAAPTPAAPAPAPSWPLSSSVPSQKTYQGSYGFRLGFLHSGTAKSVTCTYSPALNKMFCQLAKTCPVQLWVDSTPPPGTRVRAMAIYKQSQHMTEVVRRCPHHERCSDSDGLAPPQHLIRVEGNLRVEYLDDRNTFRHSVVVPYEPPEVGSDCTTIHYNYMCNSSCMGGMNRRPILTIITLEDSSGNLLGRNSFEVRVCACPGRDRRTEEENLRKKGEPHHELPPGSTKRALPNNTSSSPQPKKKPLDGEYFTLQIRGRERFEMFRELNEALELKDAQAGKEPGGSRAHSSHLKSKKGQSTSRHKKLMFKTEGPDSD

Regarding “azurin: copper-containing, electron-transfer protein secreted by Pseudomonas aeruginosa; 128-amino acid”, in the data set with full-length p53, the “complex formation with full-length p53” value was “a stable complex is formed”. Moreover, the “binding to p53 NTD” value with NTD of p53 is recorded as “binds to either the NTD of p53”. Moreover, in the data set on cancer cells [1], the “anticancer activity in vitro” value was “significant anticancer activity in vitro”. Besides, the “anticancer activity in vivo” value in data set [2] is listed as “significant anticancer activity”. Also, the “effect on p53 level” value with p53 was “stabilization and subsequent increase in intracellular concentration of p53”. In the data set with cancer cells [3], the “preferential entry into cancer cells” value is “preferentially enters cancer relative to normal cells”.
